Laboratory results taken from patent US20100273816A1, “Quinazoline Compounds” (priority 2007, published 2010).

How the values were obtained:
human LXRβ = target: T1, human LXRβ (Homo sapiens, UniProt P55055); experiment: Ligand-binding test procedure for human LXRβ (3H T0901317 tracer, flash plates); settings: biotinylated hLXRβ from E. coli extract, +4° C. over night, read-out: hLXRB binding assay Mean IC50
T1 construct: biotin (biotinylated); made in house; host or cells: E. coli (crude extract)
T1 sequence (P55055 1-460): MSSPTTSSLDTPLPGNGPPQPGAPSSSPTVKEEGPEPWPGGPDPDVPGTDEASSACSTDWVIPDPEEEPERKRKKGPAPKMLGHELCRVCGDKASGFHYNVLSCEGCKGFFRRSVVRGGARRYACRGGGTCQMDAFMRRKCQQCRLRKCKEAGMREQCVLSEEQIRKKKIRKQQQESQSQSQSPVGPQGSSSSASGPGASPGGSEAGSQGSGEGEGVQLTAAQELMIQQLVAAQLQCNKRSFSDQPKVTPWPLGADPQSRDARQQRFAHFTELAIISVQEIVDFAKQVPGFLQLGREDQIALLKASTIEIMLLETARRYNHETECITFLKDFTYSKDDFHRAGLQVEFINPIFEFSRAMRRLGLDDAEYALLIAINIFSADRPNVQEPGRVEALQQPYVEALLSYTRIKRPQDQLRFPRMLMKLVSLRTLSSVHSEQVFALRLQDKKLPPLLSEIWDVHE
Description: I. Ligand-Binding Test Procedure for Human LXRβ.
(§1) Buffer: 100 mM KCl, 100 mM TRIS (pH 7.4 at +4° C.), 8.6% glycerol, 0.1 mM PMSF*, 2 mM MTG*, 0.2% CHAPS (* not used in wash buffer)
Receptor source: E. coli extract from cells expressing biotinylated hLXRβ. Extract was made in a similar buffer as above, but with 50 mM TRIS.
(§2) Washed streptavidin and coated flash plates with wash buffer.
(§3) Diluted receptor extract to give Bmax ˜4000 cpm and add to the wells.
(§4) Wrapped the plates in aluminum foil and stored them at +4° C. over night.
(§5) Made a dilution series in DMSO of the test ligands.
(§6) Made a 5 nM solution of the radioactive tracer in buffer.
Mixed 250 μl diluted tracer with 50 of the test ligand from each concentration of the dilution series.
(§7) Washed the receptor-coated flash plates.
(§8) Added 200 μl per well of the ligand/radiolabel mixture to the receptor-coated flash plates.
(§9) Wrapped the plates in aluminum foil and incubate at +4° C. over night.
(§10) Aspirated wells, and wash the flashed plates. Sealed the plate.
(§11) Measured the remaining radioactivity in the plate.

human LXRα = target: T2, human LXRα (Homo sapiens, UniProt Q13133); experiment: Ligand-binding test procedure for human LXRα (3H T0901317 tracer, flash plates); settings: biotinylated hLXRα from E. coli extract, +4° C. over night, read-out: hLXRa binding assay Mean IC50
T2 construct: biotin (biotinylated); made in house; host or cells: E. coli (crude extract)
T2 sequence (Q13133 1-447): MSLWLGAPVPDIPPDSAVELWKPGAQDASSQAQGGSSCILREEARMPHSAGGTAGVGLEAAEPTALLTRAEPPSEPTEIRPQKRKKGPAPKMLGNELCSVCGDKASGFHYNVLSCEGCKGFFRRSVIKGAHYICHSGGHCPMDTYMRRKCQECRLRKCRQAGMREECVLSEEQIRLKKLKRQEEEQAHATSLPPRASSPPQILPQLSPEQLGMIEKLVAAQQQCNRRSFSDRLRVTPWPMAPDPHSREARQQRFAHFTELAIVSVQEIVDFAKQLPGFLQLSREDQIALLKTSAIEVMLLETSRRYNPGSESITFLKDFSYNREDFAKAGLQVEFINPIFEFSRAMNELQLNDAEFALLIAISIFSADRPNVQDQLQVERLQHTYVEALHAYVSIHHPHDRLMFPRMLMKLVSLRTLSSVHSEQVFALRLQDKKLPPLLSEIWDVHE
Description: II. Ligand-Binding Test Procedure for Human LXRα.
as §1
Receptor source: E. coli extract from cells expressing biotinylated hLXRα. Extract was made in a similar buffer as above, but with 50 mM TRIS.
as §2, §3, §4, §5, §6
Mixed 250 μl diluted tracer with 5 μl of the test ligand from each concentration of the dilution series.
as §7, §8, §9, §10, §11

| SMILES | IC50 (human LXRβ) [nM] | IC50 (human LXRα) [nM] |
| --- | --- | --- |
| CCS(=O)(=O)c1cccc(Oc2cccc(-c3ncnc4c(C(F)(F)F)cccc34)c2)c1 [Example 5, 4-{3-[3-(ethylsulfonyl)phenoxy]phenyl}-8-(trifluoromethyl)quinazoline] | 101 | 1570 |
| CC(C)S(=O)(=O)c1cccc(Oc2cccc(-c3ncnc4c(C(F)(F)F)cccc34)c2)c1 [Example 6, 4-{3-[3-(isopropylsulfonyl)phenoxy]phenyl}-8-(trifluoromethyl)quinazoline] | 63 | 1020 |
| COCCCS(=O)(=O)c1cccc(Oc2cccc(-c3ncnc4c(C(F)(F)F)cccc34)c2)c1 [Example 7, 4-(3-{3-[(3-methoxypropyl)sulfonyl]phenoxy}phenyl)-8-(trifluoromethyl)quinazoline] | 651 | 4990 |
| CCCS(=O)(=O)c1cc(Cl)cc(Oc2cccc(-c3ncnc4c(C(F)(F)F)cccc34)c2)c1 [Example 8, 4-{3-[3-chloro-5-(propylsulfonyl)phenoxy]phenyl}-8-(trifluoromethyl)quinazoline] | > 1000 | > 1000 |
| O=S(=O)(CCCO)c1cc(Cl)cc(Oc2cccc(-c3ncnc4c(C(F)(F)F)cccc34)c2)c1 [Example 9, 3-[(3-chloro-5-{3-[8-(trifluoromethyl)quinazolin-4-yl]phenoxy}phenyl)sulfonyl]propan-1-ol] | – | > 1000 |
| CCCS(=O)(=O)c1cccc(Oc2cccc(-c3ncnc4c(C(F)(F)F)cccc34)c2)c1 [Example 15, 4-{3-[3-(propylsulfonyl)phenoxy]phenyl}-8-(trifluoromethyl)quinazoline] | 449 | 4420 |
| CC(C)CS(=O)(=O)c1cccc(Oc2cccc(-c3ncnc4c(C(F)(F)F)cccc34)c2)c1 [Example 16, 4-{3-[3-(isobutylsulfonyl)phenoxy]phenyl}-8-(trifluoromethyl)quinazoline] | > 1000 | > 1000 |
| CC(C)CCS(=O)(=O)c1cccc(Oc2cccc(-c3ncnc4c(C(F)(F)F)cccc34)c2)c1 [Example 17, 4-(3-{3-[(3-methylbutyl)sulfonyl]phenoxy}phenyl)-8-(trifluoromethyl)quinazoline] | > 1000 | > 1000 |
| O=S(=O)(CCCO)c1cccc(Oc2cccc(-c3ncnc4c(C(F)(F)F)cccc34)c2)c1 [Example 18, 3-[(3-{3-[8-(trifluoromethyl)quinazolin-4-yl]phenoxy}phenyl)sulfonyl]propan-1-ol] | 412 | 3540 |
| CS(=O)(=O)c1cc(F)cc(Oc2cccc(-c3ncnc4c(C(F)(F)F)cccc34)c2)c1 [Example 20, 4-{3-[3-fluoro-5-(methylsulfonyl)phenoxy]phenyl}-8-(trifluoromethyl)quinazoline] | 398 | 6330 |
| Cc1nc(-c2cccc(Oc3cccc(S(C)(=O)=O)c3)c2)c2cccc(C(F)(F)F)c2n1 [Example 21, 2-methyl-4-{3-[3-(methylsulfonyl)phenoxy]phenyl}-8-(trifluoromethyl)quinazoline] | 433 | 13800 |
| CS(=O)(=O)c1cccc(Oc2cccc(-c3ncnc4c(Cl)cccc34)c2)c1 [Example 24, 8-chloro-4-{3-[3-(methylsulfonyl)phenoxy]phenyl}quinazoline] | 295 | 5320 |
| CS(=O)(=O)c1cccc(-c2cccc(-c3ncnc4c(C(F)(F)F)cccc34)c2)c1 [Example 27, 4-(3′-Methanesulfonyl-biphenyl-3-yl)-8-trifluoromethyl-quinazoline] | 194 | 1670 |
| Cc1nc(-c2cccc(-c3cccc(S(C)(=O)=O)c3)c2)c2cccc(C(F)(F)F)c2n1 [Example 37, 4-(3′-Methanesulfonyl-biphenyl-3-yl)-2-methyl-8-trifluoromethyl-quinazoline] | 69 | 706 |
| Cc1nc(-c2cccc(-c3ccc(S(C)(=O)=O)cc3)c2)c2cccc(C(F)(F)F)c2n1 [Example 38, 4-(4′-Methanesulfonyl-biphenyl-3-0)-2-methyl-8-trifluoromethyl-quinazoline] | 6270 | – |
| CCc1nc(-c2cccc(-c3cccc(S(C)(=O)=O)c3)c2)c2cccc(C(F)(F)F)c2n1 [Example 40, 2-ethyl-4-[3′-(methylsulfonyl)biphenyl-3-yl]-8-(trifluoromethyl)quinazoline] | 97 | 1140 |
| CCCc1nc(-c2cccc(-c3cccc(S(C)(=O)=O)c3)c2)c2cccc(C(F)(F)F)c2n1 [Example 41, 4-[3′-(methylsulfonyl)biphenyl-3-yl]-2-propyl-8-(trifluoromethyl)quinazoline] | 175 | > 1000 |
| CC(C)c1nc(-c2cccc(-c3cccc(S(C)(=O)=O)c3)c2)c2cccc(C(F)(F)F)c2n1 [Example 42, 2-isopropyl-4-[3′-(methylsulfonyl)biphenyl-3-yl]-8-(trifluoromethyl)quinazoline] | 452 | 3250 |
| CS(=O)(=O)c1cccc(-c2cccc(-c3nc(-c4ccccc4)nc4c(C(F)(F)F)cccc34)c2)c1 [Example 43, 4-[3′-(methylsulfonyl)biphenyl-3-yl]-2-phenyl-8-(trifluoromethyl)quinazoline] | 309 | 20300 |

Other lines, results leading:

| IC50 (human LXRβ) [nM] | IC50 (human LXRα) [nM] | SMILES |
| --- | --- | --- |
| 151 | 1820 | CS(=O)(=O)c1cccc(Oc2cccc(-c3ncnc4c(C(F)(F)F)cccc34)c2)c1 [Example 4, 4-{3-[3-(Methylsulfonyl)phenoxy]phenyl}-8-(trifluoromethyl)quinazoline] |
| 3620 | 26100 | CS(=O)(=O)c1ccc(Oc2cccc(-c3ncnc4c(C(F)(F)F)cccc34)c2)cc1 [Example 10, 4-{3-[4-(methylsulfonyl)phenoxy]phenyl}-8-(trifluoromethyl)quinazoline] |
| 2240 | > 1000 | CCS(=O)(=O)c1ccc(Oc2cccc(-c3ncnc4c(C(F)(F)F)cccc34)c2)cc1 [Example 11, 4-{3-[4-(ethylsulfonyl)phenoxy]phenyl}-8-(trifluoromethyl)quinazoline] |
| > 1000 | > 1000 | CCCS(=O)(=O)c1ccc(Oc2cccc(-c3ncnc4c(C(F)(F)F)cccc34)c2)cc1 [Example 12, 4-{3-[4-(propylsulfonyl)phenoxy]phenyl}-8-(trifluoromethyl)quinazoline] |
| 1540 | > 1000 | CC(C)S(=O)(=O)c1ccc(Oc2cccc(-c3ncnc4c(C(F)(F)F)cccc34)c2)cc1 [Example 13, 4-{3-[4-(isopropylsulfonyl)phenoxy]phenyl}-8-(trifluoromethyl)quinazoline] |
| 19100 | 64800 | O=S(=O)(CCCO)c1ccc(Oc2cccc(-c3ncnc4c(C(F)(F)F)cccc34)c2)cc1 [Example 19, 3-[(4-{3-[8-(trifluoromethyl)quinazolin-4-yl]phenoxy}phenyl)sulfonyl]propan-1-ol] |
| 285 | 2830 | CS(=O)(=O)c1cccc(COc2cccc(-c3ncnc4c(C(F)(F)F)cccc34)c2)c1 [Example 25, 4-(3-{[3-(methylsulfonyl)benzyl]oxy}phenyl)-8-(trifluoromethyl)quinazoline] |
| > 1000 | > 1000 | CC(C)(C(=O)O)c1ccc(COc2cccc(-c3ncnc4c(C(F)(F)F)cccc34)c2)cc1 [Example 44, 2-methyl-2-[4-({3-[8-(trifluoromethyl)quinazolin-4-yl]phenoxy}methyl)phenyl]propanoic acid] |
| 5290 | > 1000 | O=C(O)Cc1ccc(COc2cccc(-c3ncnc4c(C(F)(F)F)cccc34)c2)cc1 [Example 45, [4-({3-[8-(trifluoromethyl)quinazolin-4-yl]phenoxy}methyl)phenyl]acetic acid] |
